Results on one substance are retold here after US4216206A (priority 1977, dated 1980).

For this data set, the system named is mouse. The experiment in a line: acute toxicity in the mouse over 7 days. The note with it: i.v. Type of data set: in vivo. How it is done: The acute toxicities of the antibiotics were determined in the mouse over 7 days.

For the substance Thiostrepton, the LD50 – broadly, the dose at which mortality reaches 50% – was under 100 mg/kg.
